The text below walks through data of US20210198365A1, “COMBINATION PRODUCT FOR THE TREATMENT OF CANCER” (Debiopharm International S.A., priority 2017, published 2021).

One assay relates to human T cells (PBMCs). The assay can be described thus: Ex vivo T-cell activation in human PBMCs upon CD3/CD28 stimulation. The assay is classed as cell-based. The note with it: 10 μM Debio 1143 added to anti-CD3/CD28 stimulation, 24 hours, cytometric analysis. As to the method:
FIG. 1: Ex vivo T-cell activation in human peripheral blood mononuclear cells (PBMCs) upon CD3/CD28 stimulation and Debio 1143 treatment. N=1 healthy donor; values represent means of triplicates±SD. To test the effect of Debio 1143 on activation of human T cells, PBMCs freshly isolated from healthy human donors were stimulated ex vivo with anti-CD3/CD28 antibodies for 24 in the presence of 10 μM Debio 1143, or control treatments without stimulation and Debio 1143 incubation.

For another assay, the system named is MBT-2 bladder cancer. The assay can be described thus: Subcutaneous MBT-2 mouse bladder cancer syngeneic model. In kind it is in vivo. The note with it: anti-PD-L1 5 mg/kg i.p. bi-weekly; Debio 1143 100 mg/kg p.o. QD1-5; alone or combined, 3 weeks. The protocol: FIG. 3: Anti-tumor activity of Debio 1143, anti-PD-L1 antibody, and their combination in the subcutaneous MBT-2 mouse bladder cancer syngeneic model.
The anti-tumor activity of an anti-PD-L1 antibody (5 mg/kg BIW i.p.; clone 10F.9G2, BioXcell) was tested either alone or in combination with Debio 1143 (100 mg/kg QD1-5 p.o.) in MBT-2 immunocompetent syngeneic mouse model of bladder cancer in C3H/HeNCrl mice over 3 weeks (see, for example, Shimazui et al., 2013. Int J Oncol. 42(2):543-8). Each mouse was inoculated subcutaneously at the right flank region with MBT-2 tumor cells (2×10^5) in 0.1 ml of PBS for tumor development. The treatments were started when the mean tumor size reached 101 mm^3 (n=8/group).

With `CN[C@@H](C)C(=O)N[C@H]1CN(C(=O)CC(C)C)CC[C@H]2CC[C@@H](C(=O)NC(c3ccccc3)c3ccccc3)N2C1=O` [Debio 1143, (5S,8S,10aR)-N-benzhydryl-5-((S)-2-(methylamino)propanamido)-3-(3-methylbutanoyl)-6-oxodecahydropyrrolo[1,2-a][1,5]diazocine-8-carboxamide], in the assay on human T cells (PBMCs), the “T cell activation (percentage of IFNγ+ CD4+ and IFNγ+ CD8+ T-cells)” value is “significant increase in T cell activation”. For the same molecule, the anti-tumor activity entry in the assay with MBT-2 bladder cancer was “weak anti-tumor activity”.
